The pIC50 is −log10 of the IC50, conventionally taken in molar units.

Common to all, as to format: cell-based
The target of experiment [1] is T1, ASIC1a (Homo sapiens, UniProt P78348).
T1 sequence (P78348 1-528): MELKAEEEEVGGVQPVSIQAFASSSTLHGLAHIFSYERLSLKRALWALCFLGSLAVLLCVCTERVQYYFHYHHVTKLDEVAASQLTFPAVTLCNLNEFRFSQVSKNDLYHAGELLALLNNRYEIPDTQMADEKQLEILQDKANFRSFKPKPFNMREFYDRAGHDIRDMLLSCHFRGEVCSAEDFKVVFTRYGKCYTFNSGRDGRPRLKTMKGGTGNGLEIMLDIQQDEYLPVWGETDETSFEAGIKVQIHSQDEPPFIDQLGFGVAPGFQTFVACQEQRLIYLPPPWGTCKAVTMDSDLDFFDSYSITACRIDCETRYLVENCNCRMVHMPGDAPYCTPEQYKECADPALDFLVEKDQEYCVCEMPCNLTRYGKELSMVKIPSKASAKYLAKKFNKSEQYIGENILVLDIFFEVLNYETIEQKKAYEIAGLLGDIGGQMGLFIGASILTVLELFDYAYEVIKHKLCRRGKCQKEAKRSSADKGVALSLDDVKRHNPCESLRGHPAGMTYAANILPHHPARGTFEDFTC
The experiment can be described thus: Two-electrode voltage clamp in Xenopus laevis oocytes (Xo), acid-induced currents. The following applies: Xenopus oocytes; for inhibition at 50 µM: read-out: % inh. at 50 μM (Xo); for inhibition at 100 µM: read-out: % inh. at 100 μM (Xo). Also noted: expressed in transfected cells; host or cells: Xenopus laevis oocytes (nuclear microinjection of expression vector such as pcDNA3). The essentials: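 Defolliculated oocytes were nuclear-injected with channel cDNA and expressed for 2–4 days at 19 °C. Under two-electrode voltage clamp at room temperature, oocytes were superfused with pH 7.4 Ringer, and currents were evoked by switching to acidic MES Ringer (pH<7). Compound was present in both control and acidic solutions.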
For orientation: Two-electrode voltage clamp holds a large cell at a set potential and records current.

In experiment [2] the target is T1, ASIC1a. The experiment can be described thus: Calcium imaging of MES-induced calcium response (FLIPR). The following applies: ASIC1a expressing HEK293 cells, MES-induced calcium response; read-out: IC50 (FLIPR). Also noted: host or cells: HEK293.
Experiment [3] concerns the target T1, ASIC1a. The experiment can be described thus: Calcium imaging of MES-induced calcium response (FlexStation, "Flex"). Also noted: host or cells: HEK293. The following applies: ASIC1a expressing HEK293 cells; for inhibition at 40 µM: read-out: % inh. at 40 μM (Flex). How it is done:
ASIC1a expressing HEK293 cells are grown in culture medium (DMEM with 10% FBS), in polystyrene culture flasks ([…]) at 37° C. in a humidified atmosphere of 5% CO2. Confluency of cells should be 80-90% on day of plating. Cells are rinsed with 10 ml of PBS and cells are re-suspended by addition of culture medium and trituration with a 25 ml pipette.
The cells are seeded at a density of approximately 1×10^6 cells/ml (100 μl/well) in black-walled, clear bottom, 96-well plates pre-treated with 10 mg/l poly-D-lysin (75 μl/well for ≧30 min). Plated cells are allowed to proliferate for 24 h before loading with dye.
Fluo-4/AM (1 mg, Molecular Probes) is dissolved in 912 μl DMSO. The Fluo-4/AM stock solution (1 mM) is diluted with culture medium to a final concentration of 2 μM (loading solution).
The culture medium is aspirated from the wells, and 50 μl of the Fluo-4/AM loading solution is added to each well. The cells are incubated at 37° C. for 30 min.
After the loading period, the loading solution is aspirated and the cells are washed twice with 100 μl modified Assay Buffer (145 mM NaCl, 5 mM KCl, 5 mM CaCl2, 1 mM MgCl2, 10 mM HEPES, pH 7.4) to remove extracellular dye. Following the second wash, 100 μl modified Assay Buffer is added to each well and the fluorescence is measured in FLIPR™ or FlexStation™ (Molecular Devices, USA), or any other suitable equipment known to the skilled in the art.
The MES-induced peak calcium response, in the presence of test substance, is expressed relatively to the MES response alone. Test substances that block the MES-induced calcium response are re-tested in triplicates. Confirmed hits are picked for further characterization by performing full dose-response curves to determine potency of each hit compound as represented by the IC50 values (i.e., the concentration of the test substance which inhibits 50% of the MES-induced calcium response).

pIC50: −log10 of the molar value.

Turning to `CN1CCc2c(-c3ccccc3)cc(C(=O)O)c(N)c2C1` [Compound 141], at ASIC1a [1], the inhibition at 50 µM is < 25%. Moreover, the pIC50 on ASIC1a [2] is < 4.15. As for `COC(=O)c1cc(-c2ccccc2)c2c(c1N)CN(C)CC2` [Compound 142], at ASIC1a [1], the inhibition at 50 µM was < 25%. For the same molecule, the pIC50 on ASIC1a [2] was < 4.15. For `CN1CCc2c(-c3ccccc3)ccc(NCCO)c2C1` [Compound 143], the inhibition at 50 µM at ASIC1a [1] is < 25%. For the same molecule, at ASIC1a [2], the pIC50 is < 4.15.

Turning to `CC(=O)Nc1c(C(=O)O)cc(-c2ccccc2)c2c1CN(C)CC2` [Compound 144], the inhibition at 50 µM on ASIC1a [1] was < 25%. The pIC50 on ASIC1a [2] was < 4.15. On to `CCOC(=O)N1CCc2c(-c3ccccc3)cc(C(=O)CCl)c(N)c2C1` [Compound 149], for which the inhibition at 50 µM on ASIC1a [1] is < 25%. Moreover, on ASIC1a [2], the pIC50 was < 4.15. In the case of `CN1CCc2c(-c3ccccc3)ccc(Nc3ncccc3C(=O)O)c2C1` [Compound 150], the inhibition at 50 µM on ASIC1a [1] was < 25%. Also, the pIC50 on ASIC1a [2] was < 4.15.

For `CN1CCc2c(-c3ccccc3)ccc(NCCC(=O)O)c2C1` [Compound 151], the inhibition at 50 µM at ASIC1a [1] is < 25%. Besides, the pIC50 at ASIC1a [2] was < 4.15. Consider `CN1CCc2c(-c3ccccc3)cc([N+](=O)[O-])c(N)c2C1` [Compound 155], for which, at ASIC1a [1], the inhibition at 50 µM is < 25%. Moreover, at ASIC1a [2], the pIC50 was 4.15 to 4.40. As for `CC(=O)Nc1c(N)cc(-c2ccccc2)c2c1CN(C)CC2` [Compound 156], the inhibition at 50 µM on ASIC1a [1] is < 25%. Moreover, the pIC50 on ASIC1a [2] is < 4.15. Consider `CCOC(=O)N1CCc2c(Br)ccc([N+](=O)[O-])c2C1` [Compound 157], for which the inhibition at 100 µM at ASIC1a [1] was > 50%. The pIC50 on ASIC1a [2] is < 4.15. Consider `CCOC(=O)N1CCc2c(Br)ccc(NCC(=O)OC)c2C1` [Compound 158], for which the inhibition at 50 µM on ASIC1a [1] was < 25%. At ASIC1a [2], the pIC50 was < 4.15. Take `CCOC(=O)N1CCc2c(-c3ccccc3)ccc(N)c2C1` [Compound 159]: the inhibition at 50 µM on ASIC1a [1] was in the range of 20 to 40%. Also, the pIC50 at ASIC1a [2] is < 4.15. As to `CCOC(=O)N1CCc2c(Br)ccc(N)c2C1` [Compound 160], the inhibition at 100 µM at ASIC1a [1] lay in the range of 30 to 50%. The pIC50 at ASIC1a [2] was < 4.15. Take `CCOC(=O)N1CCc2c(-c3ccccc3)ccc([N+](=O)[O-])c2C1` [Compound 161]: the inhibition at 50 µM at ASIC1a [1] lay within 20 to 40%. Moreover, at ASIC1a [2], the pIC50 was < 4.15.

`CCOC(=O)C(=O)Nc1ccc(-c2ccccc2)c2c1CN(C)CC2` [Compound 162]: at ASIC1a [1], the inhibition at 50 µM is < 25%. In addition, the pIC50 at ASIC1a [2] is < 4.15. For `CN1CCc2c(-c3ccccc3)ccc(Br)c2C1` [Compound 172] the same measures were < 25% and 4.15 to 4.30. In the case of `COC(=O)c1ccc(-c2ccccc2)c2c1CN(C(=O)OC(C)(C)C)CC2` [Compound 177], the inhibition at 50 µM on ASIC1a [1] is < 25%. The pIC50 on ASIC1a [2] is < 4.15.

On to `CN1CCc2c(-c3ccccc3)ccc(C#N)c2C1` [Compound 178], for which the inhibition at 50 µM at ASIC1a [1] was < 25%. Moreover, at ASIC1a [2], the pIC50 is < 4.15.

As to `COC(=O)c1cc(-c2ccccc2)c2c(c1C(=O)OC)CN(C(=O)OC(C)(C)C)CC2` [Compound 179], the inhibition at 50 µM at ASIC1a [1] was < 25%. In addition, the pIC50 on ASIC1a [2] is < 4.15.

With `COC(=O)c1cc(-c2ccccc2)c2c(c1C(=O)OC)CN(C)CC2` [Compound 180], the inhibition at 50 µM at ASIC1a [1] is < 25%. Besides, the pIC50 at ASIC1a [2] was < 4.15. In the case of `CC(C)(C)OC(=O)N1CCc2c(-c3ccccc3)ccc(C(N)=O)c2C1` [Compound 181], the inhibition at 50 µM at ASIC1a [1] is < 25%. Besides, the pIC50 on ASIC1a [2] is < 4.15. In the case of `CC(C)(C)OC(=O)N1CCc2c(-c3ccccc3)ccc(C(=O)O)c2C1` [Compound 182], the inhibition at 50 µM on ASIC1a [1] was < 25%. In addition, the pIC50 at ASIC1a [2] was < 4.15. Regarding `CCN(CC)Cc1cc(-c2cc(F)ccc2OC)cc2c1NC(=O)/C2=N/O` [Compound 183, 7-Diethylaminomethyl-5-(5-fluoro-2-methoxy-phenyl)-1H-indole-2,3-dione 3-oxime], the inhibition at 40 µM on ASIC1a [3] (40 μM) was < 25%. In the case of `COc1ccc(F)cc1-c1ccc(N)c(CO)c1` [Compound 186, (4-Amino-5′-fluoro-2′-methoxy-biphenyl-3-yl)-methanol], on ASIC1a [3] (40 μM), the inhibition at 40 µM was < 25%. With `COc1ccc(F)cc1-c1ccc2c(c1)COC(=O)N2` [Compound 187, 6-(5-Fluoro-2-methoxy-phenyl)-1,4-dihydro-benzo[d][1,3]oxazin-2-one], the inhibition at 40 µM at ASIC1a [3] (40 μM) fell in the range of 25 to 45%. `CCOC(=O)Nc1ccc(-c2cc(F)ccc2OC)cc1CN(CC)CC` [Compound 212]: the inhibition at 40 µM on ASIC1a [3] (40 μM) was < 25%. With `CCN(CC)Cc1cc(-c2cc(F)ccc2OC)cc2c1NC(=O)/C2=N/O` [Compound 213], the “% inh. at 40 μM (Flex)” value on ASIC1a [3] (40 μM) is given as <25% inhibition at 40 μM (Flex). As for `CCN(CC)Cc1cc(-c2cc(F)ccc2OC)ccc1NC(=O)N1CCOCC1` [Compound 214], the inhibition at 40 µM at ASIC1a [3] (40 μM) was < 25%. Turning to `CCN(CC)Cc1cc(-c2cc(F)ccc2OC)ccc1NC(=O)N(C)C` [Compound 215], the inhibition at 40 µM on ASIC1a [3] (40 μM) is < 25%. Consider `CCN1CCc2c(-c3cc(C)cc(C)c3)cc3c(c2C1)NC(=O)/C3=N/O` [Compound 216], for which the negative-log IC50 (pIC50) at ASIC1a [3] was > 5.00. On to `CCN1CCc2c(-c3cccc(C)c3C)cc3c(c2C1)NC(=O)/C3=N/O` [Compound 217], for which the inhibition at 40 µM on ASIC1a [3] (40 μM) is > 50%. Turning to `CCN1CCc2c(-c3cc(C)ccc3C)cc3c(c2C1)NC(=O)/C3=N/O` [Compound 218], at ASIC1a [3], the pIC50 was > 5.00. For `CCN1CCc2c(-c3cc(Cl)ccc3OC)cc3c(c2C1)NC(=O)/C3=N/O` [Compound 219], the pIC50 at ASIC1a [3] is > 5.00.

Take `CCN1CCc2c(-c3ccccc3OC)cc3c(c2C1)NC(=O)/C3=N/O` [Compound 220]: on ASIC1a [3], the pIC50 is > 5.00.

With `CCOc1ccccc1-c1cc2c(c3c1CCN(CC)C3)NC(=O)/C2=N/O` [Compound 221], the pIC50 at ASIC1a [3] is > 5.00.

Source of the values: US20080004272A1, “Compositions and methods for modulating gated ion channels” (PainCeptor Pharma Corporation, priority 2006, published 2008).
